{
  "source": "the NIST ThermoML archive (doi:10.1016/j.jct.2006.08.007)",
  "assay": "xn = mol fraction of the nth substance listed",
  "details": "279.15 K, 101 kPa, Liquid",
  "note": "Numbers after ± are expanded uncertainties.",
  "data": [
    {"smiles": "C1COCCO1", "note": "[1,4-dioxane] + O", "values": [
      {"measurement": "mass density", "setting": "x1 = 0.018", "value": "1008.9 ± 3.2", "unit": "kg/m3"},
      {"measurement": "speed of sound", "setting": "x1 = 0.018", "value": "1490 ± 12", "unit": "m/s"},
      {"measurement": "mass density", "setting": "x1 = 0.048", "value": "1021 ± 3.3", "unit": "kg/m3"},
      {"measurement": "speed of sound", "setting": "x1 = 0.048", "value": "1544.4 ± 13", "unit": "m/s"},
      {"measurement": "mass density", "setting": "x1 = 0.077", "value": "1031.1 ± 3.4", "unit": "kg/m3"},
      {"measurement": "speed of sound", "setting": "x1 = 0.077", "value": "1580 ± 13", "unit": "m/s"},
      {"measurement": "mass density", "setting": "x1 = 0.096", "value": "1035.1 ± 3.5", "unit": "kg/m3"},
      {"measurement": "speed of sound", "setting": "x1 = 0.096", "value": "1590.4 ± 13", "unit": "m/s"},
      {"measurement": "mass density", "setting": "x1 = 0.24", "value": "1051.2 ± 4.1", "unit": "kg/m3"},
      {"measurement": "speed of sound", "setting": "x1 = 0.24", "value": "1587.6 ± 13", "unit": "m/s"},
      {"measurement": "mass density", "setting": "x1 = 0.387", "value": "1052.8 ± 4.9", "unit": "kg/m3"},
      {"measurement": "speed of sound", "setting": "x1 = 0.387", "value": "1531.6 ± 13", "unit": "m/s"},
      {"measurement": "mass density", "setting": "x1 = 0.595", "value": "1051.7 ± 6.3", "unit": "kg/m3"},
      {"measurement": "speed of sound", "setting": "x1 = 0.595", "value": "1479.4 ± 13", "unit": "m/s"}
    ]},
    {"smiles": "CC#N", "note": "[acetonitrile] + O", "values": [
      {"measurement": "mass density", "setting": "x1 = 0.053", "value": "986.6 ± 3.2", "unit": "kg/m3"},
      {"measurement": "speed of sound", "setting": "x1 = 0.053", "value": "1540 ± 13", "unit": "m/s"},
      {"measurement": "mass density", "setting": "x1 = 0.091", "value": "974.3 ± 3.2", "unit": "kg/m3"},
      {"measurement": "speed of sound", "setting": "x1 = 0.091", "value": "1549.6 ± 13", "unit": "m/s"},
      {"measurement": "mass density", "setting": "x1 = 0.146", "value": "955.5 ± 3.3", "unit": "kg/m3"},
      {"measurement": "speed of sound", "setting": "x1 = 0.146", "value": "1511.8 ± 13", "unit": "m/s"},
      {"measurement": "mass density", "setting": "x1 = 0.187", "value": "941.9 ± 3.3", "unit": "kg/m3"},
      {"measurement": "speed of sound", "setting": "x1 = 0.187", "value": "1476.2 ± 12", "unit": "m/s"},
      {"measurement": "mass density", "setting": "x1 = 0.296", "value": "909.5 ± 3.6", "unit": "kg/m3"},
      {"measurement": "speed of sound", "setting": "x1 = 0.296", "value": "1451 ± 12", "unit": "m/s"},
      {"measurement": "mass density", "setting": "x1 = 0.376", "value": "888.4 ± 3.8", "unit": "kg/m3"},
      {"measurement": "speed of sound", "setting": "x1 = 0.376", "value": "1425 ± 12", "unit": "m/s"},
      {"measurement": "mass density", "setting": "x1 = 0.518", "value": "859 ± 4.2", "unit": "kg/m3"},
      {"measurement": "speed of sound", "setting": "x1 = 0.518", "value": "1387.2 ± 12", "unit": "m/s"},
      {"measurement": "mass density", "setting": "x1 = 0.692", "value": "831.5 ± 4.9", "unit": "kg/m3"},
      {"measurement": "speed of sound", "setting": "x1 = 0.692", "value": "1352 ± 12", "unit": "m/s"},
      {"measurement": "mass density", "setting": "x1 = 0.889", "value": "807.2 ± 5.9", "unit": "kg/m3"},
      {"measurement": "speed of sound", "setting": "x1 = 0.889", "value": "1321 ± 12", "unit": "m/s"}
    ]},
    {"smiles": "CN(C)C=O", "note": "[dimethylformamide] + O", "values": [
      {"measurement": "mass density", "setting": "x1 = 0.023", "value": "1000.9 ± 3.2", "unit": "kg/m3"},
      {"measurement": "speed of sound", "setting": "x1 = 0.023", "value": "1511.6 ± 13", "unit": "m/s"},
      {"measurement": "mass density", "setting": "x1 = 0.0485", "value": "1002.9 ± 3.2", "unit": "kg/m3"},
      {"measurement": "speed of sound", "setting": "x1 = 0.0485", "value": "1578.6 ± 13", "unit": "m/s"},
      {"measurement": "mass density", "setting": "x1 = 0.0714", "value": "1005.2 ± 3.3", "unit": "kg/m3"},
      {"measurement": "speed of sound", "setting": "x1 = 0.0714", "value": "1625 ± 13", "unit": "m/s"},
      {"measurement": "mass density", "setting": "x1 = 0.0972", "value": "1007.3 ± 3.4", "unit": "kg/m3"},
      {"measurement": "speed of sound", "setting": "x1 = 0.0972", "value": "1664.6 ± 14", "unit": "m/s"},
      {"measurement": "mass density", "setting": "x1 = 0.2457", "value": "1009.7 ± 3.9", "unit": "kg/m3"},
      {"measurement": "speed of sound", "setting": "x1 = 0.2457", "value": "1748 ± 14", "unit": "m/s"},
      {"measurement": "mass density", "setting": "x1 = 0.3865", "value": "1002.2 ± 4.5", "unit": "kg/m3"},
      {"measurement": "speed of sound", "setting": "x1 = 0.3865", "value": "1714.6 ± 14", "unit": "m/s"},
      {"measurement": "mass density", "setting": "x1 = 0.5924", "value": "986.6 ± 5.7", "unit": "kg/m3"},
      {"measurement": "speed of sound", "setting": "x1 = 0.5924", "value": "1646 ± 14", "unit": "m/s"},
      {"measurement": "mass density", "setting": "x1 = 0.844", "value": "970 ± 7.6", "unit": "kg/m3"},
      {"measurement": "speed of sound", "setting": "x1 = 0.844", "value": "1564 ± 14", "unit": "m/s"}
    ]},
    {"smiles": "C1CCOC1", "note": "[tetrahydrofuran] + O", "values": [
      {"measurement": "mass density", "setting": "x1 = 0.046", "value": "996.6 ± 5.9", "unit": "kg/m3"},
      {"measurement": "speed of sound", "setting": "x1 = 0.046", "value": "1571.5 ± 13", "unit": "m/s"},
      {"measurement": "mass density", "setting": "x1 = 0.086", "value": "994.4 ± 5.9", "unit": "kg/m3"},
      {"measurement": "speed of sound", "setting": "x1 = 0.086", "value": "1610.7 ± 13", "unit": "m/s"},
      {"measurement": "mass density", "setting": "x1 = 0.19", "value": "979 ± 6.2", "unit": "kg/m3"},
      {"measurement": "speed of sound", "setting": "x1 = 0.19", "value": "1554 ± 13", "unit": "m/s"},
      {"measurement": "mass density", "setting": "x1 = 0.33", "value": "970.5 ± 6.7", "unit": "kg/m3"},
      {"measurement": "speed of sound", "setting": "x1 = 0.33", "value": "1474.2 ± 12", "unit": "m/s"},
      {"measurement": "mass density", "setting": "x1 = 0.54", "value": "934 ± 7.4", "unit": "kg/m3"},
      {"measurement": "speed of sound", "setting": "x1 = 0.54", "value": "1420.7 ± 12", "unit": "m/s"},
      {"measurement": "mass density", "setting": "x1 = 0.74", "value": "919.2 ± 8.6", "unit": "kg/m3"},
      {"measurement": "speed of sound", "setting": "x1 = 0.74", "value": "1396.7 ± 12", "unit": "m/s"}
    ]},
    {"smiles": "O", "note": "[water] + C1CCOC1", "values": [
      {"measurement": "mass density", "setting": "x2 = 0", "value": "999.9 ± 5.8", "unit": "kg/m3"},
      {"measurement": "speed of sound", "setting": "x2 = 0", "value": "1433 ± 12", "unit": "m/s"}
    ]},
    {"smiles": "O", "note": "[water] + C1COCCO1", "values": [
      {"measurement": "mass density", "setting": "x2 = 0", "value": "999.9 ± 3.1", "unit": "kg/m3"},
      {"measurement": "speed of sound", "setting": "x2 = 0", "value": "1430.4 ± 12", "unit": "m/s"}
    ]},
    {"smiles": "O", "note": "[water] + CC#N", "values": [
      {"measurement": "mass density", "setting": "x2 = 0", "value": "999.9 ± 3.1", "unit": "kg/m3"},
      {"measurement": "speed of sound", "setting": "x2 = 0", "value": "1430.4 ± 12", "unit": "m/s"}
    ]},
    {"smiles": "O", "note": "[water] + CN(C)C=O", "values": [
      {"measurement": "mass density", "setting": "x2 = 0", "value": "999.9 ± 3.1", "unit": "kg/m3"},
      {"measurement": "speed of sound", "setting": "x2 = 0", "value": "1430.4 ± 12", "unit": "m/s"}
    ]}
  ]
}
